Laboratory results taken from US7657076B2, “Characterizing biological stimuli by response curves” (Cytokinetics, Inc., priority 2001, dated 2010).

Columns and labels:
[1] = tested on: HUVEC, A498, A548, SF268, SKOV3, and DU145; assay: Multivariate quantitative phenotype dose response by image analysis (tubulin feature); format: cell-based, human
Source text: As indicated, phenotypic vectors for given stimuli and level combinations may include multivariate information taken from different cell lines. However, this need not be the case, as all the multivariate data of interest may be obtained from a single cell line. Generally, a researcher will chose one or a range of cell lines that are relevant to the area of interest. For example, if the researcher focuses on oncology applications, the cell lines chosen may include different types of cancers and possibly other cells lines that allow one to identify typical side effects of anti cancer drugs. In one specific embodiment pertaining to oncology, six different cell lines are considered. These include HUVEC (human umbilical vein endothelial cells), A498, A548, SF268, SKOV3, and DU145.
In a more specific embodiment, the parameter set for each dose/compound point in a response path includes parameters derived from DNA markers, Golgi markers, and tubulin markers. […] The size of the nuclei as derived from a DNA marker. […]
The data points are presented within the first three principal components obtained for the entire data set. […] The specific features and cell lines used to construct the quantitative phenotypes shown as points in the plot are set forth above in the “Multivariate Phenotypic Data from Images” and “Selecting Experiments for Providing Response Paths” sections. […]

[2] = tested on: microtubule assembly; conditions: review of the literature; cited from earlier work

For `C=C1[C@@H](C)[C@H]2[C@H](Cc3ccccc3)NC(=O)[C@]23OC(=O)/C=C/C(=O)CCC[C@@H](C)C/C=C/[C@H]3[C@@H]1O` [Cytochalasin A], the “change in tubulin biological features with increasing concentration” value ([1]; all cell lines, eight concentrations) is listed as “lack of an increase in the tubulin features”, the “affinity of the microtubule side effect compared with affinity for actin” value ([1]; inferred from common PCA trajectory at lower concentrations) is listed as “lower affinity” and the “effect on microtubule assembly” value [2] is listed as “interferes with microtubule assembly by reacting with sulfhydryl groups”.
